According to paper PMC12920294, “Optimizing uPAR-targeting radiopeptides for improved tissue distribution: progress towards radionuclide therapy” (European Journal of Nuclear Medicine and Molecular Imaging, 2025):
Marks after values point to notes of the source that are not given here.

Columns and labels:
[1] = molecular target: T1, mouse serum albumin (Mus musculus, UniProt P07724); assay type: in vitro ADME
T1 construct: tissue Rockland Immunochemicals Inc., USA Lot: 32321; host or cells: mouse blood plasma
Description: (§1) The albumin-binding properties of the radiopeptides in mouse and human blood plasma were determined using an ultrafiltration assay with Amicon centrifugal filters (cut-off of 10 kDa; Merck Millipore) as previously reported (Supplementary Material). A fixed amount of the respective radiopeptide (~ 300 kBq, 15 µL, 6 pmol) was added to a defined volume (150 µL) of mouse and human blood plasma dilutions to obtain [mouse serum albumin]-to-[radiopeptide] molar concentration ratios of 0.01‒12,500 and [human serum albumin]-to-[radiopeptide] molar concentration ratios of 0.01‒20,000. The data were analyzed using a semi-logarithmic Hill plot with the maximum binding set as 100% using GraphPad Prism software (version 10.1.1). The half-maximum binding (B50 values) of each radiopeptide was expressed as relative values using the inverse ratios with the value of [^177Lu]Lu-uPAR-11 set as 1.0. […] The samples were incubated at 37 °C for 30 min. Ice-cold PBS (150 µL, pH 7.4) was added before loading the blood plasma samples on Amicon centrifugal filters (cut-off of 10 kDa; Merck Millipore) followed by centrifugation (14000 rcf, 4 °C, 30 min) to allow the separation of the plasma protein-bound from the unbound (free) fractions of each sample. The inserts of the filter devices were inverted and centrifuged at 200 rcf for 3 min to recover the protein-bound radiopeptide. The activity of the protein-bound fraction was measured using a γ-counter (Wallac Wizard 1480, PerkinElmer). The activity in the filtrate and filter unit was counted in the γ-counter and the counts were combined, assuming that the fraction retained in the filter membrane was not bound to proteins. The protein-bound fraction was expressed as percentage of the whole activity (i.e. plasma protein-bound activity, activity measured in the filtrate and activity measured in the filter (set as 100%)). The data were analyzed using a semi-logarithmic plot assuming a maximum binding of 100%. The Hill equation was fitted to the data points, and the half-maximum binding (B50) was determined based on the obtained binding curves using GraphPad Prism software (version 10.1.1). To quantitatively express and compare the albumin-binding properties of the radiopeptides, the relative albumin-binding affinity was expressed as the inverse half-maximal-binding (B50) of the respective radioligand to that of [^177Lu]Lu-uPAR-11, which was set as 1.0. The results were presented as the value obtained from the average curve from 3 independent experiments.

[2] = molecular target: human serum albumin (Homo sapiens, UniProt P02768); assay type: in vitro ADME; parameters: tissue Stiftung Blutspende SRK Aargau-Solothurn, Switzerland; host or cells: human blood plasma
Description: as §1

T1 sequence (P07724 25-608): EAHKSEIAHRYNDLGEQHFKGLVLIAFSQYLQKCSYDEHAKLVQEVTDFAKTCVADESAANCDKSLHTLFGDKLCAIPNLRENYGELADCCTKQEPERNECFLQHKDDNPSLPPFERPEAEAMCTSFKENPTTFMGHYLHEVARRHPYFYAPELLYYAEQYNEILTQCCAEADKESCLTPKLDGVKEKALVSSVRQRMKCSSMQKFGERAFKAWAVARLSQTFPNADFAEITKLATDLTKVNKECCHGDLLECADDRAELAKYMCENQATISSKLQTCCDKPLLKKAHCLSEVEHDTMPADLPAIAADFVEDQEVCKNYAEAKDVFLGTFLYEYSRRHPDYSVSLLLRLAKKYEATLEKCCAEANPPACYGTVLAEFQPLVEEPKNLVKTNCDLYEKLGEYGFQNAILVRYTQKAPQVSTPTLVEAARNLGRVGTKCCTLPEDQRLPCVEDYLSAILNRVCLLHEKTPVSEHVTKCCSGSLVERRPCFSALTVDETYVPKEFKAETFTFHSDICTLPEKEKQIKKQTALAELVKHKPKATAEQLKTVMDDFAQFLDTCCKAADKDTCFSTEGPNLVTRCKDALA
Chain of human serum albumin (P02768 25-609): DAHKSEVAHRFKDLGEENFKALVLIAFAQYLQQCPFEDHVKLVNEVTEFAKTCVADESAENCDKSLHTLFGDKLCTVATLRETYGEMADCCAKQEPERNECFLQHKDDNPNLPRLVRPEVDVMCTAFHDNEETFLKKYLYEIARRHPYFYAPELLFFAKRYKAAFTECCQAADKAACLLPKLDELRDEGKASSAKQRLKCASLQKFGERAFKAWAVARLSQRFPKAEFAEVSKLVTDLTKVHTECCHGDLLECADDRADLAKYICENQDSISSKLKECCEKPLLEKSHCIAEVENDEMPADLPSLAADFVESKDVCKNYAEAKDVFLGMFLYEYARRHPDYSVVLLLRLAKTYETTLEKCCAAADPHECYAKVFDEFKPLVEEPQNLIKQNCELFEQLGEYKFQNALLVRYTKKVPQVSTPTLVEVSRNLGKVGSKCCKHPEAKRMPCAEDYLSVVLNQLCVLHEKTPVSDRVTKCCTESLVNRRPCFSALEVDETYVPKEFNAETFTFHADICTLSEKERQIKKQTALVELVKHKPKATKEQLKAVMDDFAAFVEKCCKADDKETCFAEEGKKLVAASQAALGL

Cc1ccc(CCCC(=O)NCCOCCOCCOCCOCCC(=O)NCCCC[C@H](NC(=O)CN2CCN(CC(=O)O)CCN(CC(=O)O)CCN(CC(=O)O)CC2)C(=O)N[C@@H](CC(=O)O)C(=O)N[C@@H](CC2CCCCC2)C(=O)N[C@@H](Cc2ccccc2)C(=O)N[C@H](CO)C(=O)N[C@H](CCCNC(=N)N)C(=O)N[C@@H](Cc2ccc(O)cc2)C(=O)N[C@@H](CC(C)C)C(=O)N[C@@H](Cc2c[nH]c3ccccc23)C(=O)N[C@@H](CO)C(N)=O)cc1 [[^177Lu]Lu-uPAR-11, metal not drawn]
Weaker affinity to mouse albumin than [177Lu]Lu-uPAR-02 [1]: 3.2 fold
Inverse relative albumin-binding affinity [2]: 1.00^b
Weaker affinity to human albumin than [177Lu]Lu-uPAR-02 [2]: 4.6 fold

Cc1ccc(CCCC(=O)NCCOCCOCCOCCOCCC(=O)NC[C@H](NC(=O)CN2CCN(CC(=O)O)CCN(CC(=O)O)CCN(CC(=O)O)CC2)C(=O)N[C@@H](CC(=O)O)C(=O)N[C@@H](CC2CCCCC2)C(=O)N[C@@H](Cc2ccccc2)C(=O)N[C@H](CO)C(=O)N[C@H](CCCNC(=N)N)C(=O)N[C@@H](Cc2ccc(O)cc2)C(=O)N[C@@H](CC(C)C)C(=O)N[C@@H](Cc2c[nH]c3ccccc23)C(=O)N[C@@H](CO)C(N)=O)cc1 [[^177Lu]Lu-uPAR-14, metal not drawn]
Albumin-binding affinity relative to [177Lu]Lu-uPAR-11 [1]: 0.50‒0.77
Albumin-binding properties, relative values (inverse B50 ratio) [1]: 0.66
Inverse relative albumin-binding affinity [2]: 0.50

Cc1ccc(CCCC(=O)NCCOCCOCCOCCC(=O)NCCCC[C@H](NC(=O)CN2CCN(CC(=O)O)CCN(CC(=O)O)CCN(CC(=O)O)CC2)C(=O)N[C@@H](CC(=O)O)C(=O)N[C@@H](CC2CCCCC2)C(=O)N[C@@H](Cc2ccccc2)C(=O)N[C@H](CO)C(=O)N[C@H](CCCNC(=N)N)C(=O)N[C@@H](Cc2ccc(O)cc2)C(=O)N[C@@H](CC(C)C)C(=O)N[C@@H](Cc2c[nH]c3ccccc23)C(=O)N[C@@H](CO)C(N)=O)cc1 [[^177Lu]Lu-uPAR-15, metal not drawn]
Albumin-binding affinity relative to [177Lu]Lu-uPAR-11 [1]: 0.50‒0.77
Albumin-binding properties, relative values (inverse B50 ratio) [1]: 0.77
Inverse relative albumin-binding affinity [2]: 0.77

Cc1ccc(CCCC(=O)NCCOCCOCCOCCOCCC(=O)NCCCC[C@H](NC(=O)CC[C@H](C(=O)O)N2CCN(CC(=O)O)CCN(CC(=O)O)CCN(CC(=O)O)CC2)C(=O)N[C@@H](CC(=O)O)C(=O)N[C@@H](CC2CCCCC2)C(=O)N[C@@H](Cc2ccccc2)C(=O)N[C@H](CO)C(=O)N[C@H](CCCNC(=N)N)C(=O)N[C@@H](Cc2ccc(O)cc2)C(=O)N[C@@H](CC(C)C)C(=O)N[C@@H](Cc2c[nH]c3ccccc23)C(=O)N[C@@H](CO)C(N)=O)cc1 [[^177Lu]Lu-uPAR-17, metal not drawn]
Albumin-binding affinity relative to [177Lu]Lu-uPAR-11 [1]: 0.50‒0.77
Albumin-binding properties, relative values (inverse B50 ratio) [1]: 0.77
Inverse relative albumin-binding affinity [2]: 0.65

Cc1ccc(CCCC(=O)NCCOCCOCCOCCOCCOCCC(=O)NCCCC[C@H](NC(=O)CN2CCN(CC(=O)O)CCN(CC(=O)O)CCN(CC(=O)O)CC2)C(=O)N[C@@H](CC(=O)O)C(=O)N[C@@H](CC2CCCCC2)C(=O)N[C@@H](Cc2ccccc2)C(=O)N[C@H](CO)C(=O)N[C@H](CCCNC(=N)N)C(=O)N[C@@H](Cc2ccc(O)cc2)C(=O)N[C@@H](CC(C)C)C(=O)N[C@@H](Cc2c[nH]c3ccccc23)C(=O)N[C@@H](CO)C(N)=O)cc1 [[^177Lu]Lu-uPAR-18, metal not drawn]
Albumin-binding properties, relative values (inverse B50 ratio) [1]: 0.66
Inverse relative albumin-binding affinity [2]: 1.05
